Test results as given in patent US10300070B2, “Metabolically-activated drug conjugates to overcome resistance in cancer therapy” (The Brigham and Women's Hospital, Inc., priority 2014, dated 2019).

Tests used:
MDA-MB-231 parent or DTC [1] = assay: Cell viability (MTS) and trypan blue exclusion of parent or DTC treated with doxorubicin; format: cell-based; conditions: co-incubated with dox, 48 h
Method: (§1) MDA-MB-231 (ATCC), MDA-MB-468 and 4T-1 mammary carcinoma cells (ATCC) were cultured in DMEM containing 10% Fetal Bovine Serum (FBS) at 37 C and 5% CO2. DU145 and DU145-TxR were provided by A. Mizokami^63 and cultured in DMEM containing 10% FBS, resistant line included 100 nM paclitaxel in the culture media. During treatments with chemotherapeutics, cells were grown to semi-confluence and treated with indicated concentrations of chemotherapy in serum-containing medium for indicated time points. When small molecule inhibitors were included in treatments, they were added simultaneously with chemotherapy. For siRNA gene knockdown, cells were transfected with silencer-select siRNA plasmids (Ambion, Invitrogen, Grand Island, N.Y.) pan-CD44(1) (s2682) panCD44(2) (s2681), siHIF1A (s6539) using lipofectamine 2000 (Invitrogen, Carlsbad Calif.) following manufacturer protocol and cultured for 72 hours prior to treatment. Scrambled siRNA was used as a control. For chemotherapy treatment experiments: Cancer cells were plated at a density of 0.5-1×10^5 cells/ml and allowed to adhere for 24-48 hr. When cells reached ˜70% confluency they were treated with cytotoxics at indicated concentrations for 24-48 hours and utilized for subsequent assays. For experiments in which a shorter incubation was used (i.e. 15 min-4 hours) fresh media was added 24 hours prior to addition of chemotherapy suspended to stock concentration in PBS. For generation of DTC: Cells were treated for 48 hours with chemotherapy. Following washes with PBS, adherent cells were trypsinized and re-plated at a density of 1.5-2×10^5 cells/ml and cultured in serum-containing medium. After 24 hours incubation, floating cells were removed and remaining cells were washed with 1× PBS and considered as chemotherapy-tolerant cells. A population of drug naïve parent cells were always cultured alongside DTC and fresh media was added at every interval that experimental population (DTC) received fresh media.
Following drug incubation, cells were washed and suspended in phenol red-free RPMI or DMEM and subsequently treated with MTS reagent using manufacturer protocol (Promega, Madison, Wis.). Trypan blue exclusion was used to validate experiments and evaluate % of dead cells performed by bright field microscopy.

[2] = tested on: explant tumor tissue from taxane-refractory breast cancer patients; assay: Human refractory breast cancer explant model, glucose uptake; format: cell-based; conditions: chemotherapy in the presence of hexokinase inhibition, 72 h
Method: Anonymous human breast cancer tissues (N=7) from patients refractory to taxane-containing regimens and varying stages of disease were obtained from Mitra Biotech collected under IRB approval from HCG Bangalore Institute of Oncology with due consent. Fresh tumor tissues were collected from breast cancer patients immediately after surgical resection at HCG cancer hospital, Bangalore, India. The tumor samples were transported to the laboratory at 4° C., in appropriate transport buffer within 60 minutes post-resection, for ex-vivo studies and molecular and pathological evaluation. Tissues were cut into thin sections and cultured in 96 well plate using optimized conditions[BISWANATH REF]. Tumors were treated with a taxane, or doxorubicin at Cmax for 72 h. DMSO was used as a vehicle control. After treatment, tumor cell viability was measured. Immunohistochemistry (IHC) was performed as described in methods. Glucose uptake was evaluated 72 h post culture.
Glucose uptake assay was carried 72 hours post culture. Two micro liter of culture supernatant was added to 200 μl of Glucose reagent (Liquixx Glucose Reagent, Erbaa). All readings along with glucose standard (100 mg/dL) were run in triplicate. The plate was incubated at room temperature for 5 minutes on a plate shaker at medium speed and the absorbance was measured at 505 nm using multimode plate reader (Perkin Elmer).

mice = assay: Systemic toxicity in treated 4T-1 tumor-bearing mice (hair and weight loss, spleen, heart caspase-3); format: in vivo
Method: (§2) An in-vivo study was designed creating drug-schedules following successive doses of docetaxel at MTD or vehicle control in distinct groups. […] Finally, in effort to dissect the dosing-response of MADC vs. free drugs, a dose-titration of doxorubicin+PI103 or MADC in sequence with docetaxel was performed. […] Finally, a preliminary bio distribution study of the free doxorubicin or conjugate was performed on heterotopically-implanted 4T-1 syngeneic mammary carcninoma model. Mice were treated with 20 mg/kg equivalent of MADC or Doxorubicin or a vehicle control group (N=3 per group). […] Organ lysate was then centrifuged at 15,000 g and supernatant was filtered through a 0.2 mm filter syringe before aliquoted into quadruplicate wells of a 96-well plate. […] Autofluorescence determined from vehicle-treated control groups was subtracted from experimental groups and final fluorescence was determined as % arbitrary fluorescence units (AFU)/mg tissue as % increase from vehicle treated control values.

[3] = tested on: 4T-1 mouse mammary carcinoma; format: in vivo, mice
Method: Tumor volumes were assessed by the following formula: (Width×Width×length)/2 and values were utilized to calculate tumor specific growth rate (SGR) by the algorhythm (ln [V2/V1]/[t2−t1)] where V=volume and t=time in days^64.
An in-vivo study was designed creating drug-schedules following successive doses of docetaxel at MTD or vehicle control in distinct groups. […] Finally, in effort to dissect the dosing-response of MADC vs. free drugs, a dose-titration of doxorubicin+PI103 or MADC in sequence with docetaxel was performed.

[4] = 20 mg/kg equivalent, 24 h, heterotopic 4T-1 model
Method: as §2

ROS (hydrogen peroxide) = conditions: 10-20 uM of paclitaxel; cited from earlier work
MDA-MB-231 parent or DTC [5] = assay: Glucose uptake (2-NBDG) determined by FACS; format: cell-based; conditions: MDA-MB-231 DTC incubated with catalase for 6 hours
Method: as §1
In vitro detection of glucose uptake was performed using 2-(N-7-Nitrobenz-2-oxa-1,3-diazol-4-yl)Amino)-2-Deoxyglucose (2-NBDG) (Invitrogen, Carlsbad Calif.), dissolved in DMSO to 50 mM. Cells were pre-treated with kinase inhibitors or vehicle for 3 hours in glucose- and phenol red-free media before addition of 50 μM 2-NBDG and subsequently read by FACS ex/em 488/535 nm. ROS was determined by pre-loading cells with CM-DCFDA (1 μM), washed 2 times with PBS and subsequently treated with H2O2 or vehicle; when kinase inhibitors were included in treatment, cells were first incubated with inhibitor for 3 hours prior to CM-DCFDA loading. Fluorescence was then determined by FACS ex/em 488/535 nm. For the following assays, cells were trypsinized and counted by Nexcelom cell counter (Lawrence, Mass.) prior to being subjected to analysis in order to achieve a quantitative value per cell: Reduced glutathione was determined using a colorimetric glutathione recycling system by DTNB following manufacturer protocol (Biovision, Milpitas Calif.). ATP analysis was performed using the ATP colorimetric analysis kit (Biovision) according to manufacturer protocol. Reductive stress was detected using the Enzo nitroreductase hypoxia kit (Enzo Life Sciences, Ann Arbor Mich.) following manufacturer protocol and visualized by fluorescent microscopy; a set of non-docetaxel-treated control cells loaded with fluorescent probe were compared against docetaxel-treated cells to derive a % redox stress increase which was calculated as fluorescence intensity of nitroreductase probe per cell and expressed as increase from vehicle. Protein synthesis was measured by two means 1. L-azidohomoalanine amino acid analog of methionine containing an azide moiety was added to cultured cells (parent or DTC) for 3 hours which is incorporated into proteins during active protein synthesis. […]

DTC = assay: Total intracellular reduced glutathione (GSH) in drug tolerant cells; format: cell-based; conditions: acute (3 hours) exposure; ML-265 10 μM, catalase 2000 U/ml
Method: In vitro detection of glucose uptake was performed using 2-(N-7-Nitrobenz-2-oxa-1,3-diazol-4-yl)Amino)-2-Deoxyglucose (2-NBDG) (Invitrogen, Carlsbad Calif.), dissolved in DMSO to 50 mM. Cells were pre-treated with kinase inhibitors or vehicle for 3 hours in glucose- and phenol red-free media before addition of 50 μM 2-NBDG and subsequently read by FACS ex/em 488/535 nm. ROS was determined by pre-loading cells with CM-DCFDA (1 μM), washed 2 times with PBS and subsequently treated with H2O2 or vehicle; when kinase inhibitors were included in treatment, cells were first incubated with inhibitor for 3 hours prior to CM-DCFDA loading. Fluorescence was then determined by FACS ex/em 488/535 nm. For the following assays, cells were trypsinized and counted by Nexcelom cell counter (Lawrence, Mass.) prior to being subjected to analysis in order to achieve a quantitative value per cell: Reduced glutathione was determined using a colorimetric glutathione recycling system by DTNB following manufacturer protocol (Biovision, Milpitas Calif.). […] Protein synthesis was measured by two means 1. […] Fluorescence was detected by FACS as described below. […] GFP protein translation was determined by fluorescent microscopy. […] Individual cells were evaluated for fluorescent intensity of caspase-3 activity (red signal intensity) and green fluorescent protein intensity. […]

In the case of `O=C(O)c1nn(Cc2ccc(Cl)cc2Cl)c2ccccc12` [Lonidamine], the “response to dox in combination with inhibitor, DTC” value (MDA-MB-231 parent or DTC [1]; DTC, PI103 5 μM, lonidamine 10 μM, KB-458 and KB-697 10 μM) is reported as “exquisitely responsive, overtly driven to cell death by dox in combination”, the “response to dox in combination with inhibitor, parent cells” value (MDA-MB-231 parent or DTC [1]; drug naïve parent cells) is reported as “little synergism or a reversion of synergy” and the “glucose uptake of explant tumor tissue” value [2] is reported as “diminished capacity for glucose uptake”.

In the case of `COc1cccc2c1C(=O)c1c(O)c3c(c(O)c1C2=O)C[C@@](O)(C(=O)COC(=O)NCCSSCCNC(=O)Oc1cccc(-c2nc(N4CCOCC4)c4oc5ncccc5c4n2)c1)CC3OC1C[C@@H](C)[C@@H](O)[C@@H](N)C1` (stereo partly drawn) [MADC], the “systemic toxicity (toxic burden)” value (mice; MADC vs. free drug combination groups) is reported as “significant reduction of toxic burden”, the “hair and weight loss and myelosuppression indicated by splenic miniaturization” value (mice; MADC-treated cohorts vs free drug combination) is reported as “significantly attenuated” and the “splenic miniaturization in dose-titration” value (mice; lower concentration (3 mg/kg), in sequence with docetaxel) is reported as “negligible”. For the same molecule, the “cardiotoxicity (activated caspase-3, immunoblots of whole heart lysate)” value (mice; mouse, in vivo) was “lower indication of cardiotoxicity”, the “tumor growth suppression, in sequence with docetaxel” value ([3]; given after successive doses of docetaxel at MTD) was “elicited suppression of tumor growth, largely comparable to the combination of free drugs in similar sequence” and the “tumor growth suppression, in sequence with vehicle” value ([3]; given after vehicle control) was “operated poorly to suppress tumor growth”. For the same molecule, the “dose-titration, tumor growth, lower concentration” value ([3]; in sequence with docetaxel, 3 mg/kg) was “greater effect than free drug combination”, the “dose-titration, tumor growth, 5 mg/kg and 10 mg/kg” value ([3]; in sequence with docetaxel, 5 mg/kg and 10 mg/kg) was “saturating concentrations” and the “biodistribution (organ accumulation by fluorescence)” value [4] was “greater concentration of the conjugate in the lung compared to the free drug administration”.

In the case of `CC(=O)O[C@H]1C(=O)[C@@]2(C)[C@H]([C@H](OC(=O)c3ccccc3)[C@]3(O)C[C@H](OC(=O)[C@H](O)[C@@H](NC(=O)c4ccccc4)c4ccccc4)C(C)=C1C3(C)C)[C@]1(OC(C)=O)CO[C@@H]1C[C@@H]2O` [paclitaxel], the “increase from basal ROS levels” value (ROS (hydrogen peroxide)) is given as 3-5 ×.

B1: catalase: an endogenous modulator of redox stress (protein, UniProt P04040 2-527, looked up)
Catalase: ADSRDPASDQMQHWKEQRAAQKADVLTTGAGNPVGDKLNVITVGPRGPLLVQDVVFTDEMAHFDRERIPERVVHAKGAGAFGYFEVTHDITKYSKAKVFEHIGKKTPIAVRFSTVAGESGSADTVRDPRGFAVKFYTEDGNWDLVGNNTPIFFIRDPILFPSFIHSQKRNPQTHLKDPDMVWDFWSLRPESLHQVSFLFSDRGIPDGHRHMNGYGSHTFKLVNANGEAVYCKFHYKTDQGIKNLSVEDAARLSQEDPDYGIRDLFNAIATGKYPSWTFYIQVMTFNQAETFPFNPFDLTKVWPHKDYPLIPVGKLVLNRNPVNYFAEVEQIAFDPSNMPPGIEASPDKMLQGRLFAYPDTHRHRLGPNYLHIPVNCPYRARVANYQRDGPMCMQDNQGGAPNYYPNSFGAPEQQPSALEHSIQYSGEVRRFNTANDDNVTQVRAFYVNVLNEEQRKRLCENIAGHLKDAQIFIQKKAVKNFTEVHPDYGSHIQALLDKYNAEKPKNAIHTFVQSGSHLAAREKANL
With B1 the “glucose consumption (2NBDG uptake) in DTC” value (MDA-MB-231 parent or DTC [5]) was “reduced potential for glucose consumption” and the “total levels of reduced glutathione (GSH) in DTC” value (DTC) was “diminished total levels of reduced glutathione in DTC”.
